Measured values as given in patent US10363239B2, “Method for inhibiting growth of cancer cells” (Pain Therapeutics, Inc., priority 2013, dated 2019).

What was measured:
[1] = molecular target: FLNA pentapeptide of SEQ ID NO: 1 (Bn-VAKGL) (Homo sapiens, UniProt P21333); test: FITC-NLX-based FLNA screening assay (inhibition of FITC-naloxone binding to Bn-VAKGL on streptavidin plates); conditions: for Percent inhibition of FITC-NLX binding (preliminary study): 100 nM frozen-stored FITC-NLX, average of two runs; for inhibition at 0.01 µM: FLNA-binding compound 0.01 μM; for inhibition at 0.01 µM / inhibition at 0.1 µM / inhibition at 1 µM: 10 nM FITC-NLX, read-out: Percent Binding Inhibition; for inhibition at 0.1 µM: FLNA-binding compound 0.1 μM; for inhibition at 1 µM: FLNA-binding compound 1 μM
[2] = tested on: mu opiate receptor (MOR); test: MOR agonist activity using [35S]GTPγS binding assay in striatal membranes; format: biochemical; conditions: for % DAMGO (0.1 μM) / % DAMGO (1 μM): relative to DAMGO; for % DAMGO + BFNA: 1 μM compound + β-FNA, relative to DAMGO + BFNA
Protocol: To assess the mu opiate receptor (MOR) agonist activity of positive compounds from the FLNA screening, compounds were tested in a [^35S]GTPγS binding assay using striatal membranes. […] This assay measures a functional consequence of receptor occupancy at one of the earliest receptor-mediated events. The assay permits traditional pharmacological parameters of potency, efficacy and antagonist affinity, with the advantage that agonist measures are not subjected to amplification or other modulation that may occur when analyzing parameters further downstream of the receptor.
Thus, striatal tissue was homogenized in 10 volumes of ice cold 25 mM HEPES buffer, pH 7.4, which contained 1 mM EGTA, 100 mM sucrose, 50 μg/ml leupeptin, 0.04 mM PMSF, 2 μg/ml soybean trypsin inhibitor and 0.2% 2-mercaptoethanol. The homogenates were centrifuged at 800×g for 5 minutes and the supernatants were centrifuged at 49,000×g for 20 minutes. The resulting pellets were suspended in 10 volume of reaction buffer, which contained 25 mM HEPES, pH 7.5, 100 mM NaCl, 50 μg/ml leupeptin, 2 μg/ml soybean trypsin inhibitor, 0.04 mM PMSF and 0.02% […].
The resultant striatal membrane preparation (200 μg) was admixed and maintained (incubated) at 30° C. for 5 minutes in reaction buffer as above that additionally contained 1 mM MgCl2 and 0.5 nM [^35S]GTPγS (0.1 μCi/assay, PerkinElmer Life and Analytical Sciences) in a total volume of 250 μl and continued for 5 minutes in the absence or presence of 0.1-10 μM of an assayed compound of interest. The reaction was terminated by dilution with 750 μl of ice-cold reaction buffer that contained 20 mM MgCl2 and 1 mM EGTA and immediate centrifugation at 16,000×g for 5 minutes.
The resulting pellet was solubilized by sonicating for 10 seconds in 0.5 ml of immunoprecipitation buffer containing 0.5% digitonin, 0.2% sodium cholate and 0.5% NP-40. Normal rabbit serum (1 μl) was added to 1 ml of lysate and incubated at 25° C. for 30 minutes. Nonspecific immune complexes were removed by incubation with 25 μl of protein A/G-conjugated agarose beads at 25° C. for 30 minutes followed by centrifugation at 5,000×g at 4° C. for 5 minutes. The supernatant was divided and separately incubated at 25° C. for 30 minutes with antibodies raised against Gαo proteins (1:1,000 dilutions).
The immunocomplexes so formed were collected by incubation at 25° C. for 30 minutes with 40 μl of agarose-conjugated protein A/G beads and centrifugation at 5,000×g at 4° C. for 5 minutes. The pellet was washed and suspended in buffer containing 50 mM Tris-HCl, pH 8.0, and 1% NP-40. The radioactivity in the suspension was determined by liquid scintillation spectrometry.

[3] = Series C-2, 0.1 μM compound, [35S]GTPγS binding to Gαo, striatal membranes
[4] = Series C-2, 1 μM compound + 1 μM β-FNA
[5] = Series C-2, 1 μM compound, [35S]GTPγS binding to Gαo, striatal membranes

`C=CCN1CC[C@]23c4c5ccc(O)c4O[C@H]2C(=O)CC[C@]3(O)[C@H]1C5` [(+) NLX] was tested, and the “Percent inhibition of FITC-NLX binding (preliminary study)” value (shortened to “Percent inhibition of FITC-NLX binding”) ([1]; compound 0.1 nM) was 22.7%, the “Percent inhibition of FITC-NLX binding” value ([1]; compound 1 nM) was 22.8% and the “Percent inhibition of FITC-NLX binding” value ([1]; compound 10 nM) was 23.1%. For the same compound, the “Percent inhibition of FITC-NLX binding” value ([1]; compound 100 nM) was 22.8% and the “Percent inhibition of FITC-NLX binding” value ([1]; compound 1 µM) was 39.8%.
With `COc1ccc(NC(=O)N2CCC3(CC2)NCCO3)cc1` [Compound C0151M-2] the “% DAMGO (0.1 μM)” value ([2]; Series C-2, 0.1 μM compound) was 201.6%, the “MOR agonist activity, percent [35S]GTPγS binding at the stated compound concentration” value (from here on “MOR agonist activity, percent”) [2, 3] was 346.8% and the “MOR agonist activity, percent” value [2, 4] was 212.8%. The “% DAMGO + BFNA” value ([2]; Series C-2) was 233.1%, the “% DAMGO (1 μM)” value ([2]; Series C-2, 1 μM compound) was 122.0% and the “MOR agonist activity, percent” value [2, 5] was 397.6%.
In the case of `COc1ccc(CCCCC2c3c(cc4c(c3OC)OCO4)CC[N+]2(C)C)cc1` (centres unmarked) [Compound B0056], the “% DAMGO (0.1 μM)” value ([2]; Series B, 0.1 μM compound) is reported as 98.9%, the “MOR agonist activity, percent” value ([2]; Series B, 0.1 μM compound, [35S]GTPγS binding to Gαo, striatal membranes) is reported as 174.7% and the “MOR agonist activity, percent” value ([2]; Series B, 1 μM compound + 1 μM β-FNA) is reported as 41.8%. For the same compound, the “% DAMGO + BFNA” value ([2]; Series B) was 158.9%, the “% DAMGO (1 μM)” value ([2]; Series B, 1 μM compound) was 113.6% and the “MOR agonist activity, percent” value ([2]; Series B, 1 μM compound, [35S]GTPγS binding to Gαo, striatal membranes) was 288.8%.
For `COc1ccc(CN2CCC3(CC2)OCCN3S(=O)(=O)c2ccc(OC)cc2)cc1` [Compound C0038], the inhibition at 0.01 µM [1] was 31.7%, the inhibition at 0.1 µM [1] was 36% and the inhibition at 1 µM [1] was 43.5%.
With `O=C1CNC2(CCN(S(=O)(=O)c3ccc(O)cc3)CC2)N1Cc1ccccc1` [Compound C0148M] the inhibition at 0.01 µM [1] was 46.2%, the inhibition at 0.1 µM [1] was 52% and the inhibition at 1 µM [1] was 57%.
In the case of `O=C1CN(Cc2ccccc2)C2(CCN(C3CCCCC3)CC2)N1` [C0137M(P7)], the “% DAMGO (0.1 μM)” value ([2]; Series C-2, 0.1 μM compound) is reported as 95.6%, the “MOR agonist activity, percent” value [2, 3] is reported as 180.8% and the “MOR agonist activity, percent” value [2, 4] is reported as 55.8%. For the same compound, the “% DAMGO + BFNA” value ([2]; Series C-2) was 115.1%, the “% DAMGO (1 μM)” value ([2]; Series C-2, 1 μM compound) was 78.1% and the “MOR agonist activity, percent” value [2, 5] was 193.8%.
In the case of `O=S(=O)(c1ccccc1Oc1ccccc1)N1CCC2(CC1)NCCO2` [Compound C0149M-2], the “% DAMGO (0.1 μM)” value ([2]; Series C-2, 0.1 μM compound) is reported as 122.0%, the “MOR agonist activity, percent” value [2, 3] is reported as 209.8% and the “MOR agonist activity, percent” value [2, 4] is reported as 93.4%. The “% DAMGO + BFNA” value ([2]; Series C-2) was 102.3%, the “% DAMGO (1 μM)” value ([2]; Series C-2, 1 μM compound) was 124.8% and the “MOR agonist activity, percent” value [2, 5] was 406.7%.
`O=C(c1ccc([N+](=O)[O-])cc1)N1CCC2(CC1)OCCN2S(=O)(=O)c1ccc([N+](=O)[O-])cc1` [Compound C0033] was tested, and the “% DAMGO (0.1 μM)” value ([2]; Series C-1, 0.1 μM compound) was 85.9%, the “Concentration of FLNA-Binding Compound as Agonist 0.1 μM” value ([2]; Series C-1, 0.1 μM compound, [35S]GTPγS binding to Gαo, striatal membranes) was 134.5% and the “Concentration of FLNA-Binding Compound as Agonist 1 μM + BFNA” value ([2]; Series C-1, 1 μM compound + 1 μM β-FNA) was 76.6%. For the same compound, the “% DAMGO + BFNA” value ([2]; Series C-1) was 235.0%, the “% DAMGO (1 μM)” value ([2]; Series C-1, 1 μM compound) was 80.6% and the “Concentration of FLNA-Binding Compound as Agonist 1 μM” value ([2]; Series C-1, 1 μM compound, [35S]GTPγS binding to Gαo, striatal membranes) was 186.4%.
In the case of `COc1ccc(S(=O)(=O)N2CCC3(NCCO3)C3CCCCC32)cc1` (centres unmarked) [Compound C0144M-2], the “% DAMGO (0.1 μM)” value ([2]; Series C-2, 0.1 μM compound) is reported as 108.3%, the “MOR agonist activity, percent” value [2, 3] is reported as 186.3% and the “MOR agonist activity, percent” value [2, 4] is reported as 125.9%. The “% DAMGO + BFNA” value ([2]; Series C-2) was 137.9%, the “% DAMGO (1 μM)” value ([2]; Series C-2, 1 μM compound) was 90.8% and the “MOR agonist activity, percent” value [2, 5] was 295.9%.
With `CC(=O)c1ccc(S(=O)(=O)N2CCC3(CC2)NC(=O)CN3Cc2ccccc2)cc1` [Compound C0085M] the “% DAMGO (0.1 μM)” value ([2]; Series C-1, 0.1 μM compound) was 105.5%, the “% DAMGO + BFNA” value ([2]; Series C-1) was 112.6% and the “% DAMGO (1 μM)” value ([2]; Series C-1, 1 μM compound) was 78.4%.
